We go through 25 molecules from US7598258B2, “Quinoline derivatives and quinazoline derivatives inhibiting autophosphorylation of macrophage colony stimulating factor receptor” (Kirin Beer Kabushiki Kaisha, priority 2002, dated 2009).

This test addresses T1, mouse c-fms (Mus musculus, UniProt P09581).
T1 construct: Macrophage-like cell line BAC-1.2F5 which expresses c-fms as a M-CSF receptor on cell membranes; endogenous in cells; host or cells: BAC-1.2F5 mouse macrophage-like cell line
T1 sequence (P09581 20-977): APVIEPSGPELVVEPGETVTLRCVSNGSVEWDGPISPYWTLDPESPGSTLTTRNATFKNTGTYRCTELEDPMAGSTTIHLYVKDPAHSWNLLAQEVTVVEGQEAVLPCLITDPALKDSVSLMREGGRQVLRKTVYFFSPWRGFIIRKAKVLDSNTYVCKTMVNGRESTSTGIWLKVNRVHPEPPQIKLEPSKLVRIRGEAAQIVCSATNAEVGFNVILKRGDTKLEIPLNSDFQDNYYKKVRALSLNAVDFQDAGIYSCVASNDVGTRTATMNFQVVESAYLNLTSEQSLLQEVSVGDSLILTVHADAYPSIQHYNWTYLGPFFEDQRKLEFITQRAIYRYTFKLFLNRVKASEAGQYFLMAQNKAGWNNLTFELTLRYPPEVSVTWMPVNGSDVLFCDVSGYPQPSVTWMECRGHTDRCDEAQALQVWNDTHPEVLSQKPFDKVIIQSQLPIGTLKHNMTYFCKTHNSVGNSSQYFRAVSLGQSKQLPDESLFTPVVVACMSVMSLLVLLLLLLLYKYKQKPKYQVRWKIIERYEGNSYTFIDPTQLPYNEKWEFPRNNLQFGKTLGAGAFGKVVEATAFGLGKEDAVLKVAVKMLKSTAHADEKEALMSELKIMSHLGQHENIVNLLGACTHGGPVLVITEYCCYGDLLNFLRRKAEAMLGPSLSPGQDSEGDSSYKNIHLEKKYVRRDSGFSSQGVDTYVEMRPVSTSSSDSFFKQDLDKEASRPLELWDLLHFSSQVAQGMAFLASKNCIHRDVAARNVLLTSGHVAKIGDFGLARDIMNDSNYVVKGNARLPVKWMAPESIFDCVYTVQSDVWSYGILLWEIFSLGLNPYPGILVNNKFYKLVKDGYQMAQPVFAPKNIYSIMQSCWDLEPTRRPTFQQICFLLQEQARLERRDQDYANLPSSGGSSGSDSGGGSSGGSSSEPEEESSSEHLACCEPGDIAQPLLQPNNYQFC
Kind of test: Inhibition of c-fms autophosphorylation in macrophage-like cell line BAC-1.2F5 by M-CSF stimulation (ELISA). In kind it is cell-based. The settings on record: BAC-1.2F5 cells, human recombinant M-CSF 50 ng/ml, read-out: c-fms autophosphorylation 50% inhibitory concentration (IC50). In outline: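 BAC-1.2F5 cells serum-starved (0.1% FCS) 12 h, preincubated with compound 1 h at 37° C, then stimulated 6 min with 50 ng/ml human recombinant M-CSF. Lysates captured on anti-phosphotyrosine plates, detected with anti-c-fms antiserum and peroxidase read-out at 450 nm. IC50 from inhibition normalised between ±M-CSF controls.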
On the technique in general: In an ELISA, binding on a coated surface is turned into a signal by an enzyme label.
With `COc1cc2nccc(Oc3ccc(NC(=O)N[C@H](C)c4cccc(Br)c4)c(Cl)c3)c2cc1OC` [Example 55, N-[(1R)-1-(3-Bromophenyl)ethyl]-N′-{2-chloro-4-[(6,7-dimethoxy-4-quinolyl)oxy]phenyl}urea], the IC50 is 45.4 nM. Take `COc1cc2c(Oc3ccc(NC(=O)NC(C)c4ccc(F)c(F)c4)c(F)c3)ccnc2cc1OCCCN1CCOCC1` (stereo not shown) [Example 68, N-[1-(3,4-Difluorophenyl)ethyl]-N′-(2-fluoro-4-{[6-methoxy-7-(3-morpholinopropoxy)-4-quinolyl]oxy}phenyl)urea]: the IC50 stood at 9.8 nM.

Turning to `COc1cc2nccc(Oc3ccc(NC(=O)N[C@H](C)c4nccs4)cc3OC)c2cc1OC` [Example 82, N-{4-[(6,7-Dimethoxy-4-quinolyl)oxy]-3-methoxyphenyl}-N′-[(1R)-1-(1,3-thiazol-2-yl)ethyl]urea], the IC50 stood at 8.9 nM. The figure for `COc1cc2nccc(Oc3ccc(NC(=O)N[C@H](C)c4ccc(F)cc4)c(F)c3)c2cc1OC` [Example 30, N-{4-[(6,7-Dimethoxy-4-quinolyl)oxy]-2-fluorophenyl}-N′-[(1R)-1-(4-fluorophenyl)ethyl]urea] is 3.1 nM; for `COc1cc(Oc2ccnc3cc(OC)c(OC)cc23)ccc1NC(=O)NC(C)c1ccc(F)cc1` (stereo not shown) [Example 16, N-{4-[(6,7-Dimethoxy-4-quinolyl)oxy]-2-methoxyphenyl}-N′-[1-(4-fluorophenyl)ethyl]urea] it is 2 nM. With `COc1cc2c(Oc3ccc(NC(=O)NC(C)c4ccc(F)cc4)c(F)c3)ccnc2cc1OCCCN1CCOCC1` (stereo not shown) [Example 67, N-(2-Fluoro-4-{[6-methoxy-7-(3-morpholinopropoxy)-4-quinolyl]oxy}phenyl)-N′-[1-(4-fluorophenyl)ethyl]urea] the figure was 5.7 nM; with `COc1cc2nccc(Oc3ccc(NC(=O)N[C@H](C)c4ccc(F)cc4)cc3Cl)c2cc1OC` [Example 12, N-{3-Chloro-4-[(6,7-dimethoxy-4-quinolyl)oxy]phenyl}-N′-[(1R)-1-(4-fluorophenyl)ethyl]urea], 10.9 nM; with `COc1cc2nccc(Oc3ccc(NC(=O)N[C@H](C)c4cccc(Br)c4)c(F)c3)c2cc1OC` [Example 63, N-[(1R)-1-(3-Bromophenyl)ethyl]-N′-{4-[(6,7-dimethoxy-4-quinolyl)oxy]-2-fluorophenyl}urea], 30.9 nM. For the molecule `COc1cc2nccc(Oc3ccc(NC(=O)NC(C)c4ccc(F)cc4)cc3OC)c2cc1OC` (stereo not shown) [Example 22, N-{4-[(6,7-Dimethoxy-4-quinolyl)oxy]-3-methoxyphenyl}-N′-[1-(4-fluorophenyl)ethyl]urea], the IC50 came out at 7.7 nM.

Take `COc1cc2nccc(Oc3ccc(NC(=O)NC(C)c4ncc(C)s4)c(C)c3)c2cc1OC` (stereo not shown) [Example 103, N-{4-[(6,7-Dimethoxy-4-quinolyl)oxy]-2-methylphenyl}-N′-[1-(5-methyl-1,3-thiazol-2-yl)ethyl]urea]: the IC50 was 69.6 nM. The figure for `COc1cc2nccc(Oc3ccc(NC(=O)NC(C)c4ncc(C)s4)cc3F)c2cc1OC` (stereo not shown) [Example 102, N-{4-[(6,7-Dimethoxy-4-quinolyl)oxy]-3-fluorophenyl}-N′-[1-(5-methyl-1,3-thiazol-2-yl)ethyl]urea] is 20.3 nM; for `COc1cc2nccc(Oc3ccc(NC(=O)N[C@H](C)c4ccccc4OC)cc3)c2cc1OC` [Example 52, N-{4-[(6,7-Dimethoxy-4-quinolyl)oxy]phenyl}-N′-[(1R)-1-(2-methoxyphenyl)ethyl]urea] it is 5.5 nM; for `COc1ccc([C@@H](C)NC(=O)Nc2ccc(Oc3ccnc4cc(OC)c(OC)cc34)cc2)cc1` [Example 54, N-{4-[(6,7-Dimethoxy-4-quinolyl)oxy]phenyl}-N′-[(1R)-1-(4-methoxyphenyl)ethyl]urea] it is 69.5 nM.

Regarding `COc1cc2nccc(Oc3ccc(NC(=O)NC(C)c4nccs4)c(F)c3)c2cc1OC` (stereo not shown) [Example 70, N-{4-[(6,7-Dimethoxy-4-quinolyl)oxy]-2-fluorophenyl}-N′-[1-(1,3-thiazol-2-yl)ethyl]urea], the IC50 was 3.6 nM.

Take `COc1cc2nccc(Oc3ccc(NC(=O)NC(C)c4ncc(C)s4)c(F)c3)c2cc1OC` (stereo not shown) [Example 101, N-{4-[(6,7-Dimethoxy-4-quinolyl)oxy]-2-fluorophenyl}-N′-[1-(5-methyl-1,3-thiazol-2-yl)ethyl]urea]: the IC50 was determined as 20.1 nM.

As for `COc1cc2nccc(Oc3ccc(NC(=O)N[C@@H](C)c4ccc(F)cc4)c(F)c3)c2cc1OC` [Example 29, N-{4-[(6,7-Dimethoxy-4-quinolyl)oxy]-2-fluorophenyl}-N′-[(1S)-1-(4-fluorophenyl)ethyl]urea], the IC50 was found to be 2.3 nM. In the case of `COc1cc2nccc(Oc3cc(C)c(NC(=O)NC(C)c4ccc(F)cc4)cc3C)c2cc1OC` (stereo not shown) [Example 7, N-{4-[(6,7-Dimethoxy-4-quinolyl)oxy]-2,5-dimethylphenyl}-N′-[1-(4-fluorophenyl)ethyl]urea], the IC50 came to 20.2 nM.

In the case of `COc1cc(Oc2ccnc3cc(OC)c(OC)cc23)ccc1NC(=O)NC(C)c1nc(C)c(C)s1` (stereo not shown) [Example 99, N-{4-[(6,7-Dimethoxy-4-quinolyl)oxy]-2-methoxyphenyl}-N′-[1-(4,5-dimethyl-1,3-thiazol-2-yl)ethyl]urea], the IC50 worked out at 12.6 nM. With `COc1cc2nccc(Oc3ccc(NC(=O)N[C@@H](C)c4ccc(Br)cc4)cc3)c2cc1OC` [Example 34, N-[(1S)-1-(4-Bromophenyl)ethyl]-N′-{4-[(6,7-dimethoxy-4-quinolyl)oxy]phenyl}urea] the figure was 6.3 nM; with `COc1cc2nccc(Oc3ccc(NC(=O)NC(C)c4ccc(F)cc4)c(C(F)(F)F)c3)c2cc1OC` (stereo not shown) [Example 19, N-[4-[(6,7-Dimethoxy-4-quinolyl)oxy]-2-(trifluoromethyl)phenyl]-N′-[1-(4-fluorophenyl)ethyl]urea], 8.1 nM.

With `COc1cc2nccc(Oc3ccc(NC(=O)NC(C)c4ncc(C)s4)c(C(F)(F)F)c3)c2cc1OC` (stereo not shown) [Example 104, N-[4-[(6,7-Dimethoxy-4-quinolyl)oxy]-2-(trifluoromethyl)phenyl]-N′-[1-(5-methyl-1,3-thiazol-2-yl)ethyl]urea], the IC50 is 22 nM. Regarding `COc1cc2nccc(Oc3ccc(NC(=O)N[C@H](C)c4cccc(Br)c4)c(C(F)(F)F)c3)c2cc1OC` [Example 60, N-[(1R)-1-(3-Bromophenyl)ethyl]-N′-[4-[(6,7-dimethoxy-4-quinolyl)oxy]-2-(trifluoromethyl)phenyl]urea], the IC50 turned out to be 115 nM. Regarding `COc1cc2nccc(Oc3ccc(NC(=O)N[C@H](C)c4ccc(F)cc4)c(C)c3)c2cc1OC` [Example 15, N-{4-[(6,7-Dimethoxy-4-quinolyl)oxy]-2-methylphenyl}-N′-[(1R)-1-(4-fluorophenyl)ethyl]urea], the IC50 came out at 5.7 nM.

In the case of `COc1cc2nccc(Oc3ccc(NC(=O)N[C@H](C)c4ccc(F)cc4)c(C)c3C)c2cc1OC` [Example 27, N-{4-[(6,7-Dimethoxy-4-quinolyl)oxy]-2,3-dimethylphenyl}-N′-[(1R)-1-(4-fluorophenyl)ethyl]urea], the IC50 was 7.6 nM.

`COc1cc(Oc2ccnc3cc(OC)c(OC)cc23)ccc1NC(=O)NC(C)c1nc(C)cs1` (stereo not shown) [Example 90, N-{4-[(6,7-Dimethoxy-4-quinolyl)oxy]-2-methoxyphenyl}-N′-[1-(4-methyl-1,3-thiazol-2-yl)ethyl]urea]: the IC50 came to 3.6 nM.
